Assay results: PubChem BioAssay (NCI)
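Protocol summary: plate cells (96-well), add compound at 5 concentrations, incubate 48 h, interpolate endpoints linearly. TGI denotes the concentration required for complete inhibition of growth.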

Legend:
Assay in all cases: growth of human tumour cells (NCI), 48 h
786-0 renal = system: 786-0 renal
A498 renal = system: A498 renal
A549 NSCLC = system: A549 NSCLC
ACHN renal = system: ACHN renal
CAKI-1 renal = system: CAKI-1 renal
CCRF-CEM leukemia = system: CCRF-CEM leukemia
COLO 205 colon = system: COLO 205 colon
DLD-1 colon = system: DLD-1 colon
DMS 114 small cell lung = system: DMS 114 small cell lung
DMS 273 small cell lung = system: DMS 273 small cell lung
DU-145 prostate = system: DU-145 prostate
EKVX NSCLC = system: EKVX NSCLC
HCC-2998 colon = system: HCC-2998 colon
HCT-116 colon = system: HCT-116 colon
HCT-15 colon = system: HCT-15 colon
HL-60(TB) leukemia = system: HL-60(TB) leukemia
HOP-18 NSCLC = system: HOP-18 NSCLC
HOP-62 NSCLC = system: HOP-62 NSCLC
HOP-92 NSCLC = system: HOP-92 NSCLC
HS 578T breast = system: HS 578T breast
HT29 colon = system: HT29 colon
IGROV1 ovarian = system: IGROV1 ovarian
K-562 leukemia = system: K-562 leukemia
KM12 colon = system: KM12 colon
KM20L2 colon = system: KM20L2 colon
LOX IMVI melanoma = system: LOX IMVI melanoma
LXFL 529 NSCLC = system: LXFL 529 NSCLC
M14 melanoma = system: M14 melanoma
M19-MEL melanoma = system: M19-MEL melanoma
MALME-3M melanoma = system: MALME-3M melanoma
MCF7 breast = system: MCF7 breast
MDA-MB-435 = system: MDA-MB-435
MDA-N = system: MDA-N
MOLT-4 leukemia = system: MOLT-4 leukemia
NCI-H226 lung = system: NCI-H226 lung
NCI-H23 lung = system: NCI-H23 lung
NCI-H460 lung = system: NCI-H460 lung
NCI-H522 lung = system: NCI-H522 lung
OVCAR-3 ovarian = system: OVCAR-3 ovarian
OVCAR-4 ovarian = system: OVCAR-4 ovarian
OVCAR-5 ovarian = system: OVCAR-5 ovarian
OVCAR-8 ovarian = system: OVCAR-8 ovarian
PC-3 prostate = system: PC-3 prostate
RPMI-8226 leukemia = system: RPMI-8226 leukemia
RXF 393 renal = system: RXF 393 renal
RXF-631 renal = system: RXF-631 renal
SF-268 CNS = system: SF-268 CNS
SF-295 CNS = system: SF-295 CNS
SF-539 CNS = system: SF-539 CNS
SK-MEL-2 melanoma = system: SK-MEL-2 melanoma
SK-MEL-28 melanoma = system: SK-MEL-28 melanoma
SK-MEL-5 melanoma = system: SK-MEL-5 melanoma
SK-OV-3 ovarian = system: SK-OV-3 ovarian
SN12C renal = system: SN12C renal
SNB-19 CNS = system: SNB-19 CNS
SNB-75 CNS = system: SNB-75 CNS
SNB-78 CNS = system: SNB-78 CNS
SR leukemia = system: SR leukemia
SW-620 colon = system: SW-620 colon
T-47D breast = system: T-47D breast
TK-10 renal = system: TK-10 renal
U251 CNS = system: U251 CNS
UACC-257 melanoma = system: UACC-257 melanoma
UACC-62 melanoma = system: UACC-62 melanoma
UO-31 renal = system: UO-31 renal
XF 498 CNS = system: XF 498 CNS

Cn1c2c(c3ccccc31)CCN(CCCCN1CCN(c3ccccc3)CC1)C2=O
TGI (786-0 renal): > 46.4 µM | TGI (A498 renal): > 100 µM | TGI (A549 NSCLC): > 100 µM | TGI (ACHN renal): > 100 µM | TGI (CAKI-1 renal): 98.5 µM | TGI (CCRF-CEM leukemia): > 79.9 µM | TGI (COLO 205 colon): 26.2 µM | TGI (DLD-1 colon): > 100 µM | TGI (DMS 114 small cell lung): > 79.1 µM | TGI (DMS 273 small cell lung): > 100 µM | TGI (DU-145 prostate): > 100 µM | TGI (EKVX NSCLC): > 71.9 µM | TGI (HCC-2998 colon): 31.7 µM | TGI (HCT-116 colon): > 100 µM | TGI (HCT-15 colon): > 100 µM | TGI (HL-60(TB) leukemia): > 81.3 µM | TGI (HOP-18 NSCLC): > 31.6 µM | TGI (HOP-62 NSCLC): > 100 µM | TGI (HOP-92 NSCLC): > 100 µM | TGI (HS 578T breast): 50.6 µM | TGI (HT29 colon): 25.4 µM | TGI (IGROV1 ovarian): > 100 µM | TGI (K-562 leukemia): > 56 µM | TGI (KM12 colon): > 89.9 µM | TGI (KM20L2 colon): 33.6 µM | TGI (LOX IMVI melanoma): 32.1 µM | TGI (LXFL 529 NSCLC): > 100 µM | TGI (M14 melanoma): 16.9 µM | TGI (M19-MEL melanoma): > 86.7 µM | TGI (MALME-3M melanoma): 30.9 µM | TGI (MCF7 breast): 63.2 µM | TGI (MDA-MB-435): 36.7 µM | TGI (MDA-N): 89.9 µM | TGI (MOLT-4 leukemia): > 78 µM | TGI (NCI-H226 lung): > 87 µM | TGI (NCI-H23 lung): > 76.8 µM | TGI (NCI-H460 lung): > 93.8 µM | TGI (NCI-H522 lung): > 100 µM | TGI (OVCAR-3 ovarian): > 100 µM | TGI (OVCAR-4 ovarian): > 100 µM | TGI (OVCAR-5 ovarian): 80.9 µM | TGI (OVCAR-8 ovarian): > 56.2 µM | TGI (PC-3 prostate): 86.6 µM | TGI (RPMI-8226 leukemia): > 92.3 µM | TGI (RXF 393 renal): 76.4 µM | TGI (RXF-631 renal): > 100 µM | TGI (SF-268 CNS): > 78.4 µM | TGI (SF-295 CNS): > 100 µM | TGI (SF-539 CNS): > 100 µM | TGI (SK-MEL-2 melanoma): > 77.6 µM | TGI (SK-MEL-28 melanoma): > 61.8 µM | TGI (SK-MEL-5 melanoma): 22.9 µM | TGI (SK-OV-3 ovarian): > 100 µM | TGI (SN12C renal): > 91.4 µM | TGI (SNB-19 CNS): > 100 µM | TGI (SNB-75 CNS): > 100 µM | TGI (SNB-78 CNS): > 100 µM | TGI (SR leukemia): > 100 µM | TGI (SW-620 colon): > 56.2 µM | TGI (T-47D breast): > 100 µM | TGI (TK-10 renal): > 90.4 µM | TGI (U251 CNS): > 84.2 µM | TGI (UACC-257 melanoma): 26.6 µM | TGI (UACC-62 melanoma): > 68.7 µM | TGI (UO-31 renal): > 80.9 µM | TGI (XF 498 CNS): > 70.1 µM

COc1ccc(C(=O)c2c3cc(OC)c(OC)c(OC)c3cc[n+]2C)cc1
TGI (786-0 renal): 33.5 µM | TGI (A498 renal): > 100 µM | TGI (A549 NSCLC): 34.7 µM | TGI (ACHN renal): > 100 µM | TGI (CCRF-CEM leukemia): 71.2 µM | TGI (DLD-1 colon): > 100 µM | TGI (DMS 114 small cell lung): 75.7 µM | TGI (EKVX NSCLC): > 100 µM | TGI (HCC-2998 colon): 98.8 µM | TGI (HCT-116 colon): > 100 µM | TGI (HOP-18 NSCLC): 80.6 µM | TGI (HOP-62 NSCLC): > 100 µM | TGI (HT29 colon): > 100 µM | TGI (IGROV1 ovarian): > 100 µM | TGI (K-562 leukemia): > 100 µM | TGI (KM12 colon): > 100 µM | TGI (KM20L2 colon): > 100 µM | TGI (LXFL 529 NSCLC): > 100 µM | TGI (M14 melanoma): > 100 µM | TGI (M19-MEL melanoma): > 100 µM | TGI (MALME-3M melanoma): > 100 µM | TGI (MOLT-4 leukemia): > 100 µM | TGI (NCI-H226 lung): 65.2 µM | TGI (NCI-H23 lung): 66.5 µM | TGI (NCI-H460 lung): > 100 µM | TGI (NCI-H522 lung): 62.4 µM | TGI (OVCAR-5 ovarian): > 100 µM | TGI (OVCAR-8 ovarian): > 100 µM | TGI (RPMI-8226 leukemia): 49 µM | TGI (RXF 393 renal): > 100 µM | TGI (RXF-631 renal): > 100 µM | TGI (SF-268 CNS): > 100 µM | TGI (SK-MEL-2 melanoma): 52.2 µM | TGI (SK-MEL-28 melanoma): > 100 µM | TGI (SK-MEL-5 melanoma): 35.1 µM | TGI (SK-OV-3 ovarian): > 100 µM | TGI (SN12C renal): > 100 µM | TGI (SNB-19 CNS): > 100 µM | TGI (SNB-75 CNS): 95.7 µM | TGI (SNB-78 CNS): > 100 µM | TGI (SR leukemia): > 100 µM | TGI (SW-620 colon): > 100 µM | TGI (TK-10 renal): > 100 µM | TGI (U251 CNS): > 100 µM | TGI (UO-31 renal): > 100 µM | TGI (XF 498 CNS): 33.3 µM
